Reference: article PMC4864979 (Bioorganic & medicinal chemistry, 2015)

System: 50 kinases
Assay: Profiling against 50 kinases, radioactive filter-binding assay
Format: biochemical
Settings: duplicate (Supplementary Figure 1)

NCCCNc1nc(Nc2cccc(NC(=O)N3CCCC3)c2)ncc1I [Compound 3, N-(3-((4-((3-aminopropyl)amino)-5-iodopyrimidin-2-yl)amino)phenyl)pyrrolidine-1-carboxamide]
selectivity throughout the kinome: good selectivity throughout the kinome
